The values that follow come from ChEMBL document CHEMBL4715870, “Synthesis and Structure-Activity Relationship of Tetra-Substituted Cyclohexyl Diol Inhibitors of Proviral Insertion of Moloney Virus (PIM) Kinases” (J Med Chem, 2020).

The nature of series [1]: physchem. Particulars: buffer, pH 7.4.
Series [2] in a line: in vitro. Particulars: human, Caco-2.

Broadly, the logD is lipophilicity at a set pH, counting ionised and neutral species. A lower logD goes with a more hydrophilic compound. What is called Papp A→B is the apparent permeability from the apical to the basolateral side of a cell layer. Compound `C[C@H]1C[C@@H](c2ccncc2NC(=O)c2ccc(F)c(-c3c(F)cccc3F)n2)C[C@@H](O)[C@@H]1O` came in with a logD in series [1] of 3. This compound also came in with a Papp A→B in series [2] of 28.8 ×10⁻⁶ cm/s.

Turning to `C[C@@H]1C[C@H](N)C[C@H](c2ccncc2NC(=O)c2ccc(F)c(-c3c(F)cccc3F)n2)C1` [LGH-447], in series [1], the logD stood at 1.9. In series [2], this compound yielded a Papp A→B of 8.5 ×10⁻⁶ cm/s.
